Test system: 454973-116-R2-J3-PDC spheroids, percent test/control viability
Assay: Anticancer human tumor 454973-116-R2-J3-PDC patient-derived pancreatic carcinoma cell line growth inhibition [CLK]
Conditions: spheroids with HUVEC and MSC; for IC50: curve of first compound; for viability, T/C: stronger effect = lower value
Text: A high-throughput screen of multi-cell type tumor spheroids was designed to identify active combinations of […] and targeted small molecules. Complex spheroids include a stromal component modeled by human endothelial cells (HUVEC) and fibroblasts modeled by human mesenchymal stem cells (MSCs). The concentration ranges selected for each drug and investigational agent were based upon clinically achievable concentrations if the clinical Cmax of the agent was known.
Compounds. The drugs and investigational agents: cirtuvivint (SM08502; NSC835563), CC-671 (NSC850746), vemurafenib (NSC761431), tapotoclax (NSC804041), sotorasib (NSC818433), adagrasib (NSC831453), MRTX-1133 (NSC836407), BAY2416964 (NSC825713), copanlisib (NSC816437), inavolisib (NSC800729), abemaciclib (NSC768073), osimertinib (NSC779217), entinostat (NSC756642), eltanexor (KPT-8602, NSC794443), venetoclax (NSC766270), ceralasertib (NSC777638), bortezomib (NSC756655), olaparib (NSC753686), talazoparib (NSC767125), alisertib (NSC759677), peposertib (NSC802822), gemcitabine (NSC613327), 5-fluorouracil (NSC19893), SN-38 (NSC673596), oxaliplatin (NSC266046), paclitaxel (NSC125973), and doxorubicin (NSC123127), were obtained from the National Cancer Institute (NCI) Developmental Therapeutics Program Chemical Repository. The FDA-approved anticancer drug set is available from the Developmental Therapeutics Program at https://dtp.cancer.gov/organization/dscb/obtaining/available plates.htm. […] The stock solutions were prepared in dimethyl sulfoxide (DMSO, Sigma-Aldrich, St. Louis, MO, cat. D2650), except for the platinum complexes which were prepared in saline (Quality Biological, Gaithersburg, MD, cat. 114-055-101), at 800-fold the tested concentration and stored at -70 degrees C prior to their use. All drugs and investigational agents were tested over a range starting from a high concentration at or near the clinical Cmax and decreasing in half-log increments. If the clinical Cmax for an agent had not been determined, the highest concentration tested was 10 microM.
Cell Culture. All cells were maintained in an incubator at 37 degrees C and 5% CO2 with 95% humidity. The PDC lines were cultured according to standard operating procedures established by the NCI PDMR. Briefly, all PDCs were thawed and cultured in Matrigel-coated flasks prepared with a working solution of 1X Ham's F-12 nutrient mix, without supplementation (Invitrogen, Waltham, MA, cat. 11765054), 100 U/mL penicillin-streptomycin (Invitrogen, cat. 15140122), and 2.5% Matrigel (Corning Inc., Corning, NY, cat. 354248) for the first three passages. The 947758-054-R-J2-PDC line was cultured in 6B/Colon 1A media, which includes advanced DMEM/F-12 (Thermo Fisher Scientific, cat. 12634028), 10 mM HEPES (Thermo Fisher Scientific, cat. 15630080), 1X GlutaMAX supplement (Thermo Fisher Scientific, cat. 35050061), 0.1 mg/mL primocin (InvivoGen, cat. ant-pm-2), 10% defined fetal bovine serum, heat inactivated (HyClone Laboratories Inc., cat. SH30070.03HI), 1.25 mM N-Acetyl-L-cysteine (Sigma-Aldrich, cat. A9165), 10 mM nicotinamide (Sigma-Aldrich, cat. N0636), 1X B-27 supplement (Thermo Fisher Scientific, cat. 17504044), 1X N-2 supplement (Thermo Fisher Scientific, cat. 17502048), and 10 microM Y-27632 dihydrochloride (Tocris Bioscience, cat. 1254). The 876862-298-R-J1-PDC was cultured in 6E media, which includes all 6B/Colon 1A media components plus 50% L-WRN conditioned media (ATCC, cat. CRL-3276), 50 ng/mL recombinant human EGF recombinant protein (hEGF; Thermo Fisher Scientific, cat. PHG0311), 10 ng/mL recombinant human fibroblast growth factor 10 (hGFG-10; PeproTech, cat. 100-26), 1 ng/mL recombinant human fibroblast growth factor 2 (hFGF-2; PeproTech, cat. 100-18B), and 1 µM prostaglandin E2 (PGE2; Tocris, cat. 2296). The 227483-062-R1-J1-PDC line was cultured in Panc media, containing all 6E components except hFGF-2, with the addition of 500 nM SB-431542 (Selleckchem, cat. S1067) and 10 nM gastrin (Tocris, cat. 3006). […]
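Also: spheroids exposed to compounds for 7 days before readout.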

For `C#Cc1c(F)ccc2cc(O)cc(-c3ncc4c(N5CC6CCC(C5)N6)nc(OCC56CCCN5CC(F)C6)nc4c3F)c12` (configuration not stated) + CN1CCN(c2cc(C(=O)Nc3cc4cc(-c5cnn(C)c5)ccc4cn3)ccn2)CC1, the IC50 (second compound 0.0316 µM) was 34.7 nM, the IC50 (second compound 0.1 µM) was under 31.6 nM and the IC50 (second compound 0.316 µM) was under 31.6 nM. For the same compound, the IC50 (second compound 1 µM) was under 31.6 nM, the IC50 (second compound 3.16 µM) was under 31.6 nM and the IC50 (second compound 10 µM) was under 31.6 nM. The viability, T/C (second compound 0.0316 µM, first compound 0.0316 µM) was 51%, the viability, T/C (second compound 0.0316 µM, first compound 0.1 µM) was 40.5% and the viability, T/C (second compound 0.0316 µM, first compound 0.316 µM) was 29.7%. The viability, T/C (second compound 0.0316 µM, first compound 1 µM) was 30.5%, the viability, T/C (second compound 0.0316 µM, first compound 3.16 µM) was 26.4% and the viability, T/C (second compound 0.0316 µM, first compound 10 µM) was 21.7%. It also gave a viability, T/C (second compound 0.1 µM, first compound 0.0316 µM) of 42%, a viability, T/C (second compound 0.1 µM, first compound 0.1 µM) of 35.6% and a viability, T/C (second compound 0.1 µM, first compound 0.316 µM) of 29.6%. The viability, T/C (second compound 0.1 µM, first compound 1 µM) was 21.9%, the viability, T/C (second compound 0.1 µM, first compound 3.16 µM) was 22.5% and the viability, T/C (second compound 0.1 µM, first compound 10 µM) was 16.6%. The viability, T/C (second compound 0.316 µM, first compound 0.0316 µM) was 2.95%, the viability, T/C (second compound 0.316 µM, first compound 0.1 µM) was 4.54% and the viability, T/C (second compound 0.316 µM, first compound 0.316 µM) was 2.86%. It also gave a viability, T/C (second compound 0.316 µM, first compound 1 µM) of 2.52%, a viability, T/C (second compound 0.316 µM, first compound 3.16 µM) of 2.6% and a viability, T/C (second compound 0.316 µM, first compound 10 µM) of 2.24%. The viability, T/C (second compound 1 µM, first compound 0.0316 µM) was 0.11%, the viability, T/C (second compound 1 µM, first compound 0.1 µM) was 0.13% and the viability, T/C (second compound 1 µM, first compound 0.316 µM) was 0.46%. For the same compound, the viability, T/C (second compound 1 µM, first compound 1 µM) was 0.08%, the viability, T/C (second compound 1 µM, first compound 3.16 µM) was 0.12% and the viability, T/C (second compound 1 µM, first compound 10 µM) was 0.4%. It also gave a viability, T/C (second compound 3.16 µM, first compound 0.0316 µM) of 0.06%, a viability, T/C (second compound 3.16 µM, first compound 0.1 µM) of 0.9% and a viability, T/C (second compound 3.16 µM, first compound 0.316 µM) of 0.56%. The viability, T/C (second compound 3.16 µM, first compound 1 µM) was 0.07%, the viability, T/C (second compound 3.16 µM, first compound 3.16 µM) was 0.09% and the viability, T/C (second compound 3.16 µM, first compound 10 µM) was 1.64%. It also gave a viability, T/C (second compound 10 µM, first compound 0.0316 µM) of 0.11%, a viability, T/C (second compound 10 µM, first compound 0.1 µM) of 0.13% and a viability, T/C (second compound 10 µM, first compound 0.316 µM) of 0.73%. For the same compound, the viability, T/C (second compound 10 µM, first compound 1 µM) was 0.56%, the viability, T/C (second compound 10 µM, first compound 3.16 µM) was 0.92% and the viability, T/C (second compound 10 µM, first compound 10 µM) was 0.5%.

From PubChem BioAssay AID2060618 (Molecular Pharmacology Branch, DTP, NCI, 2025)
